This is an account of results in patent publication US9682056B2, “Oleacein for treating or preventing diseases resulting from atherosclerotic plaques” (Warszawski Uniwersytet Medyczny, priority 2012, dated 2017).

The structures appear in SMILES notation.

In assay [1] the test system is metalloproteinase-9 (MMP-9) production. Nature of the assay: MMP-9 production by LPS-stimulated atherosclerotic plaque from carotid artery, ELISA. Type of assay: cell-based. The conditions noted are these: Homo sapiens; plaques (n=15) from endoartherectomy patients; LPS 1 μg/ml stimulation; 24 hours at 37° C.; average±standard error; read-out: IC50, inhibition of MMP-9 production. As to the method:
Atherosclerotic plaques (n=15) were obtained from patients subjected to endoartherectomy. The plaque obtained was divided into two portions, which were then incubated in buffered physiological saline (control), or buffered physiological saline in the presence of oleacein at the concentrations of 5, 10 and 20 μM for 24 hours at a temperature of 37° C. following prior stimulation with a solution of lipopolysaccharide at a concentration of 1 μg/ml. The unstimulated control consisted of physiological saline, in which the plaque was incubated for […]. The effect of oleacein on metalloproteinase-9 (MMP-9) production was determined using immunochemical ELISA (R&D System). The amount of MMP-9 (ng/ml) was calculated per mass of atherosclerotic plaque, and then described in terms of percentage in comparison to the stimulated control.
Background: In an ELISA, binding on a coated surface is turned into a signal by an enzyme label.

The subject of assay [2] is interleukin 10 (IL-10) production. The assay is described as follows: IL-10 production by atherosclerotic plaque, ELISA. Type of assay: cell-based, human. As to conditions: IL-10 amount per atherosclerotic plaque mass, % of stimulated control. The source says:
The effects of olacein on interleukin 10 (IL-10) production were investigated with the use of the ELISA immunochemical method (R&D system). The IL-10 amounts were converted into the atherosclerotic plaque mass and, subsequently, determined in % compared to the stimulated control.

As to `C/C=C(/C=O)[C@@H](CC=O)CC(=O)OCCc1ccc(O)c(O)c1` [oleacein], the IC50 (in general, the concentration needed to halve the response being measured) in assay [1] worked out at 9.07 ± 1.2 µM. In addition, the “IL-10 production compared to the stimulated control” value in assay [2] is on record as “about 267.1±61.5%”.
